Assay results taken from patent publication US11400283B2, “Pulse generating device for delivery of electrical pulses to a desired tissue of a mammal” (SC[…] AB, priority 2017, dated 2022).

Settings: rat, 6 hours after electroporation treatment, 800 V/cm, 12 pulses of 250 μs length
Protocol: FIG. 3 schematically illustrates a Gamma Camera image of a rat taken 6 hours after an electroporation treatment with electrical field strength of 800 V/cm and 12 pulses of 250 μs length. […] In FIG. 3, the injection site, the electroporation site and three reference sites are shown.
Further, investigation of the effect of applied electric pulses of 600, 800, 1000, 1200 V/cm; having 100 and 500 μs pulse length, and 2, 4, 6 or 12 pulses, on the accumulation of the radiolabeled pharmaceutical ^99mTc-DTPA that mimics the Bleomycin, in rat muscular tissue after in vivo electro-permeabilization has been performed. Gamma camera measurements is applied to noninvasively quantify the accumulation of ^99mTc-DTPA in the region treated with electrical pulses as previously described.

## O=C([O-])CN(CCN(CC(=O)[O-])CC(=O)[O-])CCN(CC(=O)[O-])CC(=O)[O-].[99Tc+4] [99Tcm-DTPA, 99Tcm- diethylene-triamine-penta-acetic-acid]
  activity in the electroporated site (Gamma Camera image): high activity
  activity in the reference sites (Gamma Camera image): low activity
